Patent publication US5688936A, “Vesicle membrane transport proteins” (priority 1993, dated 1997)
Read-outs that look alike come from different tables or passages of the source.

Columns and labels:
[1] = target: T1, chromaffin granule amine transport protein (Rattus norvegicus, UniProt Q01818); assay: Quantitative [3H]dopamine transport assay with mpp^res CHO cell homogenate; assay type: biochemical; settings: for rank order for affinity of substrates: quantitative assay
T1 sequence (Q01818 1-521): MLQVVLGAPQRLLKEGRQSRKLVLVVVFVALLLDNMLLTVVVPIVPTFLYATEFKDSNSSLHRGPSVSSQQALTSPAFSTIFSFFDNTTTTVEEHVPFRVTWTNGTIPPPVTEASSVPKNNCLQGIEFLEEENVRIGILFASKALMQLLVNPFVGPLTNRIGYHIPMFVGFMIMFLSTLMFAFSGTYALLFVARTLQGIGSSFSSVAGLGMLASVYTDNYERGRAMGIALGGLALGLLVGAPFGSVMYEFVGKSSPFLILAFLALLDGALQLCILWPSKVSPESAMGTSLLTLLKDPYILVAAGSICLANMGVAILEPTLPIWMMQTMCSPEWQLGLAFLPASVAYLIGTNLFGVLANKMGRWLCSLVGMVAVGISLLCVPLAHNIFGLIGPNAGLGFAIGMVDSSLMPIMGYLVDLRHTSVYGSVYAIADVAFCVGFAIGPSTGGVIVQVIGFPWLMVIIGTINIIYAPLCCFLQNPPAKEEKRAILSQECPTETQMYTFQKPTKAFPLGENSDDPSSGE
Procedure: The quantity of label bound is measured after filtration of the assay mixture. Preferably, the label is a radioactive label. […] This can be done by standard graphic kinetic techniques such as the Lineweaver-Burke plot.
Incubation was performed at 29° C. for the time period indicated (from 2 minutes to 30 minutes). The assay was terminated by dilution in cold assay buffer followed by filtration through 0.2 μm Supor™ 200 membranes (Gelman, Ann Arbor, Mich.) and the bound radioactivity was measured. The cells used for the quantitative assay are selected in MPP^+ or screened with antibody to ensure that they express the transporter at high levels, as it is difficult to measure activity in this assay at low levels of transporter expression.
The quantitative transport test was performed as described above on wild-type CHO cells and mpp^res CHO cells.

[2] = target: T1, chromaffin granule amine transport protein; assay: cell-based; assay type: cell-based; settings: for Dopamine Fluorescence (mpp^res CHO): untreated control ++++, 12 hour dopamine loading; for inhibition of vesicular amine uptake/transport (fluorescence assay, in words): concentrations of Table 1
Procedure: Uptake and cellular compartmentalization of loaded dopamine were performed by growing cells on poly-lysine-coated glass coverslips. […] The cells were then washed three times in 0.1M sodium phosphate, pH 7.4, and incubated at 4° C. in 2% glyoxylic acid/0.5 mg% MgCl2, pH 4.9-5.0 for three minutes as described by de la Torre, J. Neurosci. Meth. 3:1-5 (1980). Briefly, excess solution is wiped off the bottom and edges of the slide using absorbent paper, taking care not to touch the section. The coverslips were then drained thoroughly, dried in air at 45° C. heated to 80° C. for five minutes, inverted over mineral oil on glass slides and examined under fluorescence using the appropriate filters as described by Knigge et al., Brain Res. 120:393-405 (1977). Briefly, the preparations were infiltrated with warm immersion oil and examined in a Leitz MPV2 microspectrofluorometer equipped with Schoffel excitation and emission grating monochromators, photomultipliers, and ratio computing circuitry. Cells were scanned with either monochromatic light (370 nm) or narrow band excitation (S405, BG3) light for the purpose of identifying fluorescence within cells. Ploem illumination was used in combination with a X 63 or X 100 oil immersion objective.
Dopamine-loaded fluorescence was carried out as described in Example 1. […] Glyoxylic-acid-induced fluorescence was used to determine the intracellular distribution as described above in Example 1. The procedures were the same as described in Example 1 however a pure cDNA clone encoding the vesicle membrane transport protein, selected in the presence of MPP^+, obtained as described herein, was used rather than the primary transformant. […]
The effects of various pharmacologic agents were tested to determine whether the properties of the protein encoded by the mpp^res cDNA corresponded with those expected for the chromaffin granule amine transport protein. […] The cells were pre-incubated in Krebs-Ringer buffer containing 1 μM pargyline and the dose of the drug indicated for 15 minutes. 25 nM [^3 H]-dopamine was then added in the same buffer and after incubation at 37° C. for one hour, the cells were washed in cold Krebs-Ringer buffer, lysed and counted in Ecolite (ICN) as described by Greene and Rein, Brain Res. 129:247-263 (1978). Values were determined from three separate wells and the mean was expressed as percent of control uptake±standard deviation. […] The dose required to inhibit maximal uptake by 50%, Ki, was estimated from the fluorescence data using a range of concentrations for each agent.

PC12 cells [3] = assay: cells; settings: Rattus norvegicus, PC-12, 1 h, read-out: [^3 H]-Dopamine Uptake (PC12)
Procedure: The effects of various pharmacologic agents were tested to determine whether the properties of the protein encoded by the mpp^res cDNA corresponded with those expected for the chromaffin granule amine transport protein. […] The cells were pre-incubated in Krebs-Ringer buffer containing 1 μM pargyline and the dose of the drug indicated for 15 minutes. […] Values were determined from three separate wells and the mean was expressed as percent of control uptake±standard deviation.

[4] = tested on: MPP^+ -resistant CHO cells; assay: MTT cytotoxicity assay in MPP+-resistant transfected CHO cells; assay type: cell-based, Chinese hamster
Procedure: (§1) Differential susceptibility to the respiratory complex I inhibitors MPP^+ and rotenone was shown by measuring toxicity by measuring general cell dehydrogenase activity with reduction of a tetrazolium dye (MTT) in a spectrophotometric plate assay as described by Hansen et al., J. Immunol. Methods 119:203-210 (1989). Briefly, a stock solution of MTT (3,(4,5-dimethylthiazol-2-yl)2,5-diphenyltetrazolium bromide) was dissolved at a concentration of 5 mg/ml in sterile phosphate buffered saline at room temperature. To each well was added 25 μl of the stock solution. After two hours of incubation at 37° C., 100 μl of extraction buffer (20% w/v of SDS in a solution of 50% each dimethylformamide and demineralized water with the pH adjusted to 4.7 with acetic acid and HCl). After an overnight incubation at 37° C., the optical densities at 570 nm were measured using a multiscanner, employing the extraction buffer as the blank. This assay was carried out in triplicate on 96-well plates (NUNC, Denmark). MPP^+ and rotenone at the concentrations indicated in FIG. 6a and 6b, respectively, was added to wild-type and MPP^+ -resistant CHO cells at approximately 50% confluence, and toxicity was assayed after 2-3 days by measuring general cell dehydrogenase activity with the reduction of the tetrazolium dye MTT (3,(4,5-dimethylthiazol-2-yl)2,5-diphenyl-tetrazolium bromide). After addition of the dye at a final concentration of 1 mg/ml, the cells were incubated for two hours at 37° C. and the formazan product was solubilized in 10% sodium dodecyl sulfate (SDS). The plates were maintained at 37° C. for an additional twenty hours and the optical density was determined in an ELISA plate reader at a test wavelength of 570 nm, a reference wavelength of 630 nm and a calibration setting of 1.99. All determinations were performed in triplicate and expressed as the mean, with the error bars representing standard deviation (FIG. 6a and 6b).
To determine whether an alteration in the process of respiration was responsible for the resistance to MPP^+, the effects of other known respiratory inhibitors were examined. […] Thus, if the resistance were due to a change in the site of action, the transfected cells should also show resistance to rotenone. […] However, rotenone is considered to have its selected effect on respiration at relatively low doses, and an additional, less specific effect at higher doses.
Therefore, the toxicity of MPP^+ to transfected cells in the presence of 1 μM reserpine was examined.

chromaffin cells = settings: [3H]-MPP+ accumulated; cited from earlier work
wild-type CHO cells = assay: MTT cytotoxicity assay in wild-type CHO cells; assay type: cell-based, Chinese hamster; settings: wild-type CHO, 2-3 days
Procedure: as §1

Untransfected CHO cells = assay: Survival/selection of untransfected CHO cells in MPP+; assay type: cell-based, Chinese hamster; settings: 500 μM
Procedure: To determine whether the transfer of DNA sequences from PC12 cells into CHO cells could be used to generate stable CHO transformants resistant to MPP^+, it was first necessary to determine the spontaneous rate of resistance under different culture conditions. […] Selection of one million CHO cells at intermediate density (25-50% confluence) in 500 μM MPP^+ gave rise to 5-10 small colonies after one month. However, these cells contained particulate inclusions characteristic of MPP^+ toxicity, and grew very slowly even when maintained at low density. At moderate density, the cells degenerated further and detached from the plate.

CHO cells = assay: Inhibition of protein synthesis in CHO cells by MPP+
PC12 cells [5] = settings: cited from earlier work
transfected CHO cells = assay: Survival/selection/growth of transfected CHO cells in MPP+; assay type: cell-based, Chinese hamster
Procedure: Using the above methods, the PC12 cDNA library constructed in the plasmid expression vector CDM8 was transfected into CHO cells. Using the selectable marker RSV- neo (Walker, Weizmann Institute, Israel), […] independent stable transformants were obtained after selection in the neomycin analogue G418 at 400 μg/ml effective dose. These cells were then selected at 40% confluence in 1 mM MPP^+. […] However, at four weeks, a colony of cells without refractile inclusions appeared and rapidly covered the plate. The apparently normal growth of these cells in the presence of 1 mM MPP^+ stands in marked contrast to all of the resistant clones obtained without transfection, which grew very slowly if at all. […] However, at 1 mM MPP^+, the resistant cells did show some toxicity, particularly when the assay was performed at higher cell density.
To identify the cDNA sequences responsible for conferring resistance to MPP^+, integrated plasmids were rescued from the primary CHO transformant obtained as described above in Example 1. […] The primary MPP^+ -resistant CHO transformant was amplified in culture and following cell lysis in 5M guanidinium isothiocyanate, the high molecular weight DNA prepared by repeated precipitation in isopropanol. After digestion with Not I, which cleaves the CDM8 vector once downstream of the cDNA insertion site as well as at rare eight-nucleotide recognition sites elsewhere in the genome, the DNA was religated and transformed into E. coli by electroporation as described by Stern-Bach et al., J. Biol. Chem. 265:3961-3966 (1990). Four pools of the derived plasmids containing approximately 50 colonies each were transfected into CHO cells and after two days were selected in 1 mM MPP^+. Four weeks later, one pool gave rise to several MPP^+ -resistant colonies, two pools gave rise to 1-2 colonies and the fourth pool and CDM8 vector gave rise to no healthy, resistant colonies. Restriction enzyme analysis of the plasmids in the pool conferring the highest frequency of resistance to MPP^+ indicated three independent clones of 1.0, 1.3 and 2.5 kb. […]

NC[C@H](O)c1ccc(O)c(O)c1 [norepinephrine]
rank order for affinity of substrates [1]: serotonin>epinephrine>dopamine>norepinephrine

CNCCCN1c2ccccc2CCc2ccccc21 [desipramine]
Ki ([2]; dose required to inhibit maximal uptake by 50%, estimated from fluorescence data, read-out: Ki (est)): 500 µM

N#CC(C#N)=NNc1cccc(Cl)c1 [carbonyl cyanide m-chlorophenylhydrazone]
dopamine incorporation by mpp^res cells ([1]; 5 μM): blocked

CCN(CC)CCCC(C)Nc1ccnc2cc(Cl)ccc12 (stereo not drawn) [chloroquine]
activity at 500 µM (PC12 cells [3]): 17 ± 1%
Dopamine Fluorescence (mpp^res CHO) ([2]; agent 500 μM): 0
inhibition of vesicular amine uptake/transport (fluorescence assay, in words) [2]: inhibited vesicular amine uptake

C[n+]1ccc(-c2ccccc2)cc1 [MPP^+, 1-methyl-4-phenylpyridinium]
MPP+ toxicity (MTT assay) ([4]; resistant cells, 1 mM, particularly at higher cell density): some toxicity
MPP+ toxicity (MTT assay) ([4]; resistant clone, 2-3 days): relative lack of toxicity
toxicity to chromaffin cells (chromaffin cells): relatively little toxicity
MPP+ toxicity (MTT assay) (wild-type CHO cells): steep dose-response curve
number of resistant colonies from one million CHO cells (Untransfected CHO cells; 25-50% confluence, after one month): 5-10 small colonies
cell survival in MPP+ (Untransfected CHO cells; high density (more than 75% confluence)): all of the cells died within 24 hours
cell survival in MPP+ (Untransfected CHO cells; low density (less than 25% confluence)): the cells stopped growing, gradually acquiring refractile cytoplasmic inclusions, swelling and eventually detaching from the plate after several weeks
acquired resistance of untransfected CHO cells (Untransfected CHO cells; selection for over two months): little resistance
sensitivity of CHO cells to MPP+ relative to PC12 cells (CHO cells): greater sensitivity to MPP^+ than PC12 cells
inhibition of protein synthesis (CHO cells; over 100 μM, 2-3 days, high density CHO cells): virtually complete inhibition of protein synthesis
PC12 cell death (PC12 cells [5]; 100 μM): death by two weeks
PC12 cell death (PC12 cells [5]; 1 mM): cell death by four days
toxicity in library-transfected CHO cells (transfected CHO cells; 1 mM, 40% confluence): Virtually all of the cells developed toxicity within one week
growth of the resistant clone in MPP+ (transfected CHO cells; vs untreated wild-type cells, particularly at higher densities): slightly more slowly

NCCc1c[nH]c2ccc(O)cc12 [serotonin]
rank order for affinity of substrates [1]: serotonin>epinephrine>dopamine>norepinephrine

COc1ccc(CCN(C)CCCC(C#N)(c2ccc(OC)c(OC)c2)C(C)C)cc1OC (stereo not drawn) [verapamil]
activity at 100 µM (PC12 cells [3]): 21 ± 1%
Ki [2]: 50 µM
Dopamine Fluorescence (mpp^res CHO) ([2]; agent 100 μM): 0
inhibition of vesicular amine uptake/transport (fluorescence assay, in words) [2]: inhibited transport, but at high concentrations

NCCc1ccc(O)c(O)c1 [dopamine]
rank order for affinity of substrates [1]: serotonin>epinephrine>dopamine>norepinephrine

CNC[C@H](O)c1ccc(O)c(O)c1 [epinephrine]
rank order for affinity of substrates [1]: serotonin>epinephrine>dopamine>norepinephrine
